# Assay results from US12466829B2, “Spirocyclic piperidine melanocortin subtype-2 receptor (MC2R) antagonists and uses thereof” (Crinetics Pharmaceuticals, Inc., priority 2019, dated 2025).
# Target: T1, hMC2 receptor (Homo sapiens, UniProt Q01718)
# T1 construct: host or cells: CRE-bla-CHO-K1 cells
# Test: hMC2 membrane binding assay ([125I]ACTH (1-39) Tyr23, SPA)
# Details: crude membranes of CRE-bla-CHO-K1 cells expressing hMC2 receptor and hMRAP; 0.2 nM [125I]ACTH (1-39) Tyr23; 1.5 hours at room temperature; read-out: MC2R binding potency
# Description: Crude membrane fractions are prepared from CRE-bla-CHO-K1 cells stably expressing hMC2 receptor and hMRAP accessory protein (Thermo Fisher). The cells are grown to 85-100% confluence on standard tissue culture dishes in GlutaMax DMEM growth media (Gibco) with following additives: 10% dialyzed FBS (Gemini), 0.1 mM NEAA (Gibco), 25 mM HEPES (Gibco), 5 μg/mL blasticidin (Goldbio), 100 μg/mL zeocin (Invitrogen), 600 μg/mL hygromycin (Goldbio). To prepare membranes, cells are scraped and collected in 1× Dulbecco's phosphate buffered saline (Corning) and then pelleted at 1000 RPM's. The cell pellet is reconstituted in membrane preparation buffer (20 mM HEPES, 6 mM MgCl2 and 1 mM EGTA, protease inhibitor tablets (Pierce) adjusted to pH 7.4), homogenized using a dounce homogenizer, and the resulting membrane fraction is pelleted by centrifugation at 12,000 RPM's. The membrane pellet is resuspended in membrane preparation buffer, snap freezed and stored at −80° C. for later use.
# The hMC2 membrane binding assay utilizes the following components: radiolabel [^125I]ACTH (1-39) Tyr23 (PerkinElmer), wheatgerm agglutinin coated PVT SPA beads (PerkinElmer), crude hMC2R membranes, and compounds. Briefly hMC2R membranes are incubated with SPA beads in binding assay buffer (50 mM HEPES, 5 mM MgCl2, 1 mM CaCl2), 0.2% BSA, protease inhibitor tablets (Pierce) adjusted to pH7.4) prior to assay initiation. […] Assay plates are read using a Top Count NXT and Ki values for compounds are determined using a GraphPad Prism 6 non-linear regression analysis.
# T1 sequence (Q01718 whole entry): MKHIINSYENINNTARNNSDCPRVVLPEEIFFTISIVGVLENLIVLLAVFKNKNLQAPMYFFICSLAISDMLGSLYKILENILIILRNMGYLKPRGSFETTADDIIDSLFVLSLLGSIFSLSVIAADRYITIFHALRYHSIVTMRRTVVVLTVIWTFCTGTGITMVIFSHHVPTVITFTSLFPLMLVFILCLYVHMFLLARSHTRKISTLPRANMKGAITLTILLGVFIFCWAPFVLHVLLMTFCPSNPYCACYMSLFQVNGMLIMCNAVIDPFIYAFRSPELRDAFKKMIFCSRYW
# T1 sequence (Q8TCY5 whole entry partner): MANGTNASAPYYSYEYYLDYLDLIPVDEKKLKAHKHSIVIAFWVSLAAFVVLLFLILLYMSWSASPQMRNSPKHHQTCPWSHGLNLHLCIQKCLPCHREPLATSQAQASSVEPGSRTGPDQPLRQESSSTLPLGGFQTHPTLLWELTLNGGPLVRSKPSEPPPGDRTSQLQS
row,Molecule,Ki [µM]
1,"2-[1′-(3-aminopropyl)-7′-(2-ethoxypyridin-3-yl)-2′-oxo-2′,3′-dihydro-1′H-spiro[piperidine-4,4′-quinolin]-1-yl]-5-(trifluoromethyl)benzonitrile [1-67]",0.01 to 0.1
2,"CCOc1ncccc1-c1ccc2c(c1)N(C(=O)CN)CC21CCN(c2ccc(C(F)(F)F)cc2C#N)CC1 [1-1, 2-[1-(2-aminoacetyl)-6-(2-ethoxypyridin-3-yl)-1,2-dihydrospiro[indole-3,4′-piperidin]-1′-yl]-5-(trifluoromethyl)benzonitrile]",0.01 to 0.1
3,"CCOc1ncccc1-c1ccc2c(c1)N(C(=O)C[C@H](C)N)CC21CCN(c2ccc(C(F)(F)F)cc2C#N)CC1 [1-5, 2-{1-[(3 S)-3-aminobutanoyl]-6-(2-ethoxypyridin-3-yl)-1,2-dihydrospiro[indole-3,4′-piperidin]-1′-yl}-5-(trifluoromethyl)benzonitrile]",0.01 to 0.1
4,"CCOc1ncccc1-c1ccc2c(c1)N(C(=O)[C@@H]1CCNC1)CC21CCN(c2ccc(C(F)(F)F)cc2C#N)CC1 [1-9, 2-[6-(2-ethoxypyridin-3-yl)-1-[(3R)-pyrrolidine-3-carbonyl]-1,2-dihydrospiro[indole-3,4′-piperidin]-1′-yl]-5-(trifluoromethyl)benzonitrile]",0.01 to 0.1
5,"CCOc1ncccc1-c1ccc2c(c1)N(C(=O)CCCN)CC21CCN(c2ccc(C(F)(F)F)cc2C#N)CC1 [1-11, 2-[1-(4-aminobutanoyl)-6-(2-ethoxypyridin-3-yl)-1,2-dihydrospiro[indole-3,4′-piperidin]-1′-yl]-5-(trifluoromethyl)benzonitrile]",0.01 to 0.1
6,"CCOc1ncccc1-c1ccc2c(c1)N(CCN)CC21CCN(c2ccc(C(F)(F)F)cc2C#N)CC1 [1-12, 2-[1-(2-aminoethyl)-6-(2-ethoxypyridin-3-yl)-1,2-dihydrospiro[indole-3,4′-piperidin]-1′-yl]-5-(trifluoromethyl)benzonitrile]",0.01 to 0.1
7,"CCOc1ncccc1-c1ccc2c(c1)N(C[C@H](C)N)CC21CCN(c2ccc(C(F)(F)F)cc2C#N)CC1 [1-14, 2-{1-[(2S)-2-aminopropyl]-6-(2-ethoxypyridin-3-yl)-1,2-dihydrospiro[indole-3,4′-piperidin]-1′-yl}-5-(trifluoromethyl)benzonitrile]",0.01 to 0.1
8,"CCOc1ncccc1-c1ccc2c(c1)N(CCN)C(=O)C21CCN(c2ccc(C(F)(F)F)cc2C#N)CC1 [1-16, 2-[1-(2-aminoethyl)-6-(2-ethoxypyridin-3-yl)-2-oxo-1,2-dihydrospiro[indole-3,4′-piperidin]-1′-yl]-5-(trifluoromethyl)benzonitrile]",< 0.01
9,"CCOc1ncccc1-c1ccc2c(c1)N([C@@H]1CCNC1)C(=O)C21CCN(c2ccc(C(F)(F)F)cc2C#N)CC1 [1-18, 2-[6-(2-ethoxypyridin-3-yl)-2-oxo-1-[(3R)-pyrrolidin-3-yl]-1,2-dihydrospiro[indole-3,4′-piperidin]-1′-yl]-5-(trifluoromethyl)benzonitrile]",< 0.01
10,"CCOc1ncccc1-c1ccc2c(c1)N(C(=O)CCN)CC21CCN(c2ccc(F)c(C(F)(F)F)n2)CC1 [1-20, 3-amino-1-[6-(2-ethoxypyridin-3-yl)-1′-[5-fluoro-6-(trifluoromethyl)pyridin-2-yl]-1,2-dihydrospiro[indole-3,4′-piperidin]-1-yl]propan-1-one]",1 to 10
11,"CCOc1ncccc1-c1ccc2c(c1)N([C@@H]1CCN(C)C1)C(=O)C21CCN(c2ccc(C(F)(F)F)cc2C#N)CC1 [1-21, 2-[6-(2-ethoxypyridin-3-yl)-1-[(3R)-1-methylpyrrolidin-3-yl]-2-oxo-1,2-dihydrospiro[indole-3,4′-piperidin]-1′-yl]-5-(trifluoromethyl)benzonitrile]",0.01 to 0.1
12,"CCOc1ncccc1-c1ccc2c(c1)N(C(=O)CCN)CC21CCN(c2ccc(Cl)cc2C(F)(F)F)CC1 [1-22, 3-amino-1-{1′-[4-chloro-2-(trifluoromethyl)phenyl]-6-(2-ethoxypyridin-3-yl)-1,2-dihydrospiro[indole-3,4′-piperidin]-1-yl}propan-1-one]",0.01 to 0.1
13,"CCOc1ccc(N2CCC3(CC2)CN(C(=O)CCN)c2cc(-c4cccnc4OCC)ccc23)c(C(F)(F)F)n1 [1-23, 3-amino-1-{1′-[6-ethoxy-2-(trifluoromethyl)pyridin-3-yl]-6-(2-ethoxypyridin-3-yl)-1,2-dihydrospiro[indole-3,4′-piperidin]-1-yl}propan-1-one]",0.01 to 0.1
14,"CCOc1ncccc1-c1ccc2c(c1)N(C(=O)CCN)CC21CCN(c2cc(C(F)(F)F)cc(C#N)n2)CC1 [1-24, 6-[1-(3-aminopropanoyl)-6-(2-ethoxypyridin-3-yl)-1,2-dihydrospiro[indole-3,4′-piperidin]-1′-yl]-4-(trifluoromethyl)pyridine-2-carbonitrile]",1 to 10
15,"CCOc1ccc(N2CCC3(CC2)CN(C(=O)CCN)c2cc(-c4cccnc4OCC)ccc23)nc1C(F)(F)F [1-25, 3-amino-1-{1′-[5-ethoxy-6-(trifluoromethyl)pyridin-2-yl]-6-(2-ethoxypyridin-3-yl)-1,2-dihydrospiro[indole-3,4′-piperidin]-1-yl}propan-1-one]",1 to 10

# Continued, values first:
row,Ki [µM],Molecule
1,0.01 to 0.1,"CCOc1ccccc1-c1ccc2c(c1)N(C(=O)CN)CC21CCN(c2ccc(C(F)(F)F)cc2C#N)CC1 [1-2, 2-[1-(2-aminoacetyl)-6-(2-ethoxyphenyl)-1,2-dihydrospiro[indole-3,4′-piperidin]-1′-yl]-5-(trifluoromethyl)benzonitrile]"
2,0.01 to 0.1,"CCOc1ncccc1-c1ccc2c(c1)N(C(=O)CCN)CC21CCN(c2ccc(C(F)(F)F)cc2C#N)CC1 [1-3, 2-[1-(3-aminopropanoyl)-6-(2-ethoxypyridin-3-yl)-1,2-dihydrospiro[indole-3,4′-piperidin]-1′-yl]-5-(trifluoromethyl)benzonitrile]"
3,0.01 to 0.1,"CCOc1ncccc1-c1ccc2c(c1)N(C(=O)C[C@@H](C)N)CC21CCN(c2ccc(C(F)(F)F)cc2C#N)CC1 [1-6, 2-{1-[(3R)-3-aminobutanoyl]-6-(2-ethoxypyridin-3-yl)-1,2-dihydrospiro[indole-3,4′-piperidin]-1′-yl}-5-(trifluoromethyl)benzonitrile]"
4,0.01 to 0.1,"CCOc1ncccc1-c1ccc2c(c1)N(C(=O)CCN)CC21CCN(c2ccc(C(F)(F)F)cc2Cl)CC1 [1-7, 3-amino-1-{1′-[2-chloro-4-(trifluoromethyl)phenyl]-6-(2-ethoxypyridin-3-yl)-1,2-dihydrospiro[indole-3,4′-piperidin]-1-yl}propan-1-one]"
5,1 to 10,"CCOc1ncccc1-c1ccc2c(c1)N(C(=O)CCN)CC21CCN(c2cc(C#N)cc(C(F)(F)F)c2)CC1 [1-8, 3-[1-(3-aminopropanoyl)-6-(2-ethoxypyridin-3-yl)-1,2-dihydrospiro[indole-3,4′-piperidin]-1′-yl]-5-(trifluoromethyl)benzonitrile]"
6,0.01 to 0.1,"CCOc1ncccc1-c1ccc2c(c1)N(C(=O)[C@H]1CCNC1)CC21CCN(c2ccc(C(F)(F)F)cc2C#N)CC1 [1-10, 2-[6-(2-ethoxypyridin-3-yl)-1-[(3S)-pyrrolidine-3-carbonyl]-1,2-dihydrospiro[indole-3,4′-piperidin]-1′-yl]-5-(trifluoromethyl)benzonitrile]"
7,< 0.01,"CCOc1ncccc1-c1ccc2c(c1)N(C[C@@H](C)N)CC21CCN(c2ccc(C(F)(F)F)cc2C#N)CC1 [1-13, 2-{1-[(2R)-2-aminopropyl]-6-(2-ethoxypyridin-3-yl)-1,2-dihydrospiro[indole-3,4′-piperidin]-1′-yl}-5-(trifluoromethyl)benzonitrile]"
8,0.01 to 0.1,"CCOc1ncccc1-c1ccc2c(c1)N([C@H]1CCNC1)C(=O)C21CCN(c2ccc(C(F)(F)F)cc2C#N)CC1 [1-17, 2-[6-(2-ethoxypyridin-3-yl)-2-oxo-1-[(3S)-pyrrolidin-3-yl]-1,2-dihydrospiro[indole-3,4′-piperidin]-1′-yl]-5-(trifluoromethyl)benzonitrile]"
9,1 to 10,"CCOc1ncccc1-c1ccc2c(c1)N(C(=O)CCN)CC21CCN(c2cc(C#N)cc(C(F)(F)F)n2)CC1 [1-19, 2-[1-(3-aminopropanoyl)-6-(2-ethoxypyridin-3-yl)-1,2-dihydrospiro[indole-3,4′-piperidin]-1′-yl]-6-(trifluoromethyl)pyridine-4-carbonitrile]"
10,0.01 to 0.1,"CCOc1ncccc1-c1ccc2c(c1)N(C(=O)CCN)C(C)C21CCN(c2ccc(C(F)(F)F)cc2C#N)CC1 (centres unmarked) [1-26, 2-[1-(3-aminopropanoyl)-6-(2-ethoxypyridin-3-yl)-2-methyl-1,2-dihydrospiro[indole-3,4′-piperidin]-1′-yl]-5-(trifluoromethyl)benzonitrile]"
11,0.01 to 0.1,"CCOc1ncccc1-c1ccc2c(c1)N(C(=O)NCCN)CC21CCN(c2ccc(C(F)(F)F)cc2C#N)CC1 [1-27, N-(2-aminoethyl)-1′-[2-cyano-4-(trifluoromethyl)phenyl]-6-(2-ethoxypyridin-3-yl)-1,2-dihydrospiro[indole-3,4′-piperidine]-1-carboxamide]"
